According to patent publication US20250231178A1, “A BIOMARKER FOR DETERMINING ALZHEIMER'S DISEASE” (UNIVERSITY OF EASTERN FINLAND, priority 2022, published 2025):

Experiments:
[1] = biological target: T1, PIEZO1 receptor in red blood cells (RBCs) (Homo sapiens, UniProt Q92508); test: Yoda1-induced Ca flux in red blood cells, Fluo4 am, flow cytometry (FACS) time-lapse; assay type: cell-based; conditions: for normalized MFI levels (Fluo4 am median fluorescence intensity normalized on baseline): 10 μM Yoda1, 60 s of recording
T1 construct: indicating the Ca^2+ influx into the red blood cells (RBCs) through PIEZO1 ion channels; endogenous in cells; host or cells: Red blood cells from venous blood of healthy, MCI and AD donors
Protocol: The venous blood samples from healthy subjects, patients with mild cognitive impairment (MCI), and patients with Alzheimer's disease (AD) were collected into BD Vacutainer® blood collection tubes containing the K3-EDTA anti-coagulant. 150 μl of whole blood was taken for further processing, washed two times with 10 ml of phosphate-buffered saline (PBS) (5 mins, 300 g, RT (=about 20-25° C.) to remove plasma. After the second wash, the supernatant was removed and 50 μl of red blood cells (RBCs) were transferred to clean falcon tube and resuspended in 200 μl PBS (250 μl total volume of cell suspension). 250 μl of Fluo4 am AM (Thermo Fisher Scientific) fluorescent dye was added and cells were incubated for 30 minutes at 37° C. in dark.
After the incubation, cell suspension was washed twice with 5 ml of PBS, followed by one wash with HBSS (5 mins, 300 g, RT). Supernatant was carefully removed with pipette and 50 μl pellet was resuspended in 450 μl of Hank's Balanced Salt Solution (HBSS) to form 10% cell suspension. 10 μl of 10% cell suspension was transferred to 390 μl of RPMI/FBS (10:1) (400 μl final volume). This cell suspension was further used for flow cytometry time-lapse assessment using CytoFLEX S flow cytometer (Beckman Coulter, USA).
At the start of the recording, at t=0 seconds, baseline fluorescence was recorded for 20 seconds. At t=20 seconds, Yoda1 in DMSO was applied to the sample at the final concentration of 5 or 10 μM. At t=4 minutes and 20 seconds, ionomycin, serving as the positive control, was applied at the final concentration 10 μM. Recording was finished at t=5 minutes 30 seconds.
FIGS. 3A-3C plot the mean values of Ca^2+ signal for each group with 10 μM Yoda1 spanning from BL (t=0 seconds) to t=4 minutes, while the FIGS. 3D-3F show the measurements of individual samples at t=60 seconds.
All flow cytometric data were analyzed using CytExpert Software v 2.4 (Beckman Coulter Inc., CA, USA). Yoda1-induced Ca flux was measured by using Fluo4 am median fluorescence intensity (MFI) of single cells after Yoda1 application at different time points—baseline (before application of Yoda1 at 10 μM concentrations), and every 20 sec of the recording.
Data were analyzed using GraphPad Prism Software (CA, USA). Statistical analysis was performed using Mann-Whitney test, two-tailed. The data are presented as mean±SEM.

[2] = biological target: T1, PIEZO1 receptor in red blood cells (RBCs); test: Yoda1-induced Ca flux in red blood cells, Fluo4 am, microtiter plate format and fluorometer; assay type: cell-based; conditions: n=4, mean±SEM, plate reader
Protocol: Mann-Whitney test, two-tailed, *p<0.05. […] Signals recorded without addition of Fluo4, with and without Yoda1, were subtracted from their Fluo4 loaded counterparts to give the final read-outs used in normalising the results.
300 μL of blood from the healthy persons and AD patients was collected into the blood sampling tubes with sodium citrate to prevent coagulation. The samples were washed twice with PBS buffer (Ca^2+ and Mg^2+ free) by centrifugation at 300 G for 5 minutes. […] of the red blood cell (RBC) pellet was divided into […], 50 μL for fluorescent staining and 50 μL for the negative control. […] The samples were distributed into the microtitration plate (96-wells, 180 μL per well), after which the ground level of fluorescence (485 nm/535 nm, 1.0 s, Victor Wallac) was measured immediately. 20 μL of DMSO (for vehicle control) or 20 μL of 5 μM Yoda1 (for PIEZO1 activity) was added into the wells, and the fluorescence was measured immediately. The fluorescence signal of the sample having no Fluo4 am was subtracted from the fluorescence signals of the vehicle and Yoda1 samples treated with Fluo4 am. The increase in fluorescence upon addition of Yoda1 was normalized to the signal measured before addition of Yoda1. The normalized increase fluorescence was 2.62±0.42 for healthy and 5.64±0.23 for AD (mean #SEM) (FIG. 3G). […]

T1 sequence (Q92508 whole entry): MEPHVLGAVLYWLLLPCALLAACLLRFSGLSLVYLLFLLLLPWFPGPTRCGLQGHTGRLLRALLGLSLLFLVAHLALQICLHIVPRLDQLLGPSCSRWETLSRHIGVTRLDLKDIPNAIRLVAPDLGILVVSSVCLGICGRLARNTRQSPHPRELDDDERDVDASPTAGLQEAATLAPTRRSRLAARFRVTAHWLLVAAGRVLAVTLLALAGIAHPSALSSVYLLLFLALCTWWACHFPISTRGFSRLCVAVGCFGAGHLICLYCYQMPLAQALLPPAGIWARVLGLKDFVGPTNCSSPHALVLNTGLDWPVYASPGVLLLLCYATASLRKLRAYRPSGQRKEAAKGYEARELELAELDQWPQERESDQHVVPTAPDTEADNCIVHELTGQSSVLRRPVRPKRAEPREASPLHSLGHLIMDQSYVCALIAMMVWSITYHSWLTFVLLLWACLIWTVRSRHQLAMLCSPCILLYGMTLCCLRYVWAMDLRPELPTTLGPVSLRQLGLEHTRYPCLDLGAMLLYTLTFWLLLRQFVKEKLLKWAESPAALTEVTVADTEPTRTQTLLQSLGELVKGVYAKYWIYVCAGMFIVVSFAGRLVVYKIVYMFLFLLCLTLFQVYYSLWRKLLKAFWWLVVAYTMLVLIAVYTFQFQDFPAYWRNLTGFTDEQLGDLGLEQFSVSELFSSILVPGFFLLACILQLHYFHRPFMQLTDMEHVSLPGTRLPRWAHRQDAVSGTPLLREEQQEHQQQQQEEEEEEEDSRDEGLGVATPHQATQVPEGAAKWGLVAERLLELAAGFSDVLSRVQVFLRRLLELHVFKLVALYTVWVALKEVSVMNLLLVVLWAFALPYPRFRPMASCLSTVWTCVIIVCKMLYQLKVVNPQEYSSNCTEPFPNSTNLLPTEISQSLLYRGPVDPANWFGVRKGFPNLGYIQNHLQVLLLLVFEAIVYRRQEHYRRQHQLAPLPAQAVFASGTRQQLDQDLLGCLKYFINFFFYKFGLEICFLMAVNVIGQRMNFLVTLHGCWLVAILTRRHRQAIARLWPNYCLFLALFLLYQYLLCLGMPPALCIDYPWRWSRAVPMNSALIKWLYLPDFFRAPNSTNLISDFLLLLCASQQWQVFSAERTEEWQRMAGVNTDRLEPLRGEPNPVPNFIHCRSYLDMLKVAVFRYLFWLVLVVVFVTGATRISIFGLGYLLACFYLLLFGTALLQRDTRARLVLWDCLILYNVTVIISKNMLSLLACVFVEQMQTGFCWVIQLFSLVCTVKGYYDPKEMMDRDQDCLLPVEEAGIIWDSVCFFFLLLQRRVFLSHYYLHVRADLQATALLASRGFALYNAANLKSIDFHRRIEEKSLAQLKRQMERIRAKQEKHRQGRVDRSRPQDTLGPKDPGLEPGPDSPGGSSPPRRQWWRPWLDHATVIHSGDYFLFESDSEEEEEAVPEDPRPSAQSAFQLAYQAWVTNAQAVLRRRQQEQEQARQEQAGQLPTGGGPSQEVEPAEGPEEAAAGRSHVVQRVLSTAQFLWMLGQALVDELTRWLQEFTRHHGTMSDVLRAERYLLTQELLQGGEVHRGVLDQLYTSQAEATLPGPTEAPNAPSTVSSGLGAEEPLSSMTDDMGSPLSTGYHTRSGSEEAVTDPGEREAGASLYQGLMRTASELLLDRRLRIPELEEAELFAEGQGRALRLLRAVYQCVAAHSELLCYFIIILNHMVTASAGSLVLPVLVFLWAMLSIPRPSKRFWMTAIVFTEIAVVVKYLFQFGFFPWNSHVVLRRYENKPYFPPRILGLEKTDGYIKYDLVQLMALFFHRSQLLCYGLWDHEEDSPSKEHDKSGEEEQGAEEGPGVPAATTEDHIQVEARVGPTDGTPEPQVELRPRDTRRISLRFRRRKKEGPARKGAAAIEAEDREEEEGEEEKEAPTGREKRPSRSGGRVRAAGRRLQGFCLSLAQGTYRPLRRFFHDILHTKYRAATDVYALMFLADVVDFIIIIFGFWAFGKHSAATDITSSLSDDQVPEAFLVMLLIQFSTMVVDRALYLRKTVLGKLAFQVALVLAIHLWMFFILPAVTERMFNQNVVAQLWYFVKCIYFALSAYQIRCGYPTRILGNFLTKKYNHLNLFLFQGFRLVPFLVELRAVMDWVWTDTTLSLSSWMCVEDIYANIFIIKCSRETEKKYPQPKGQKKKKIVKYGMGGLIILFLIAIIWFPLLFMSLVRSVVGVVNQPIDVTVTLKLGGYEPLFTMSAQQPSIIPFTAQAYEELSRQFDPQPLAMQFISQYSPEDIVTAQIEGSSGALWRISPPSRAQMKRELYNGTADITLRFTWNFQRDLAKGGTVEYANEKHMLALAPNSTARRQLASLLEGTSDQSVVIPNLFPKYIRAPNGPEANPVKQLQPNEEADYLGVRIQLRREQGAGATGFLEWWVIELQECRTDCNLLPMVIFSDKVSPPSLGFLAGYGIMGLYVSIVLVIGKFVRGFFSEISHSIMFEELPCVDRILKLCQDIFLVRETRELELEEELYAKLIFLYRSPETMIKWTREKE

normalized MFI levels (Fluo4 am median fluorescence intensity normalized on baseline) ([1]; RBCs of AD patients, n=21, mean±SEM): 8.57±0.6 | normalized MFI levels (Fluo4 am median fluorescence intensity normalized on baseline) ([1]; RBCs of MCI patients, n=26, mean±SEM): 7.9±0.48 | normalized MFI levels (Fluo4 am median fluorescence intensity normalized on baseline) ([1]; RBCs of control (healthy) subjects, n=23, mean±SEM): 5.64±0.27 | time at which maximum Fluo4 am MFI levels were reached ([1]; 10 μM Yoda1 applied at 20 s of recording, levels remained similar till end of 4 min recording): ≤ 60 s | normalized increase fluorescence (signal after Yoda1 normalized to signal before addition) ([2]; 5 μM Yoda1, RBCs of AD patients): 5.64±0.23 | normalized increase fluorescence (signal after Yoda1 normalized to signal before addition) ([2]; 5 μM Yoda1, RBCs of healthy persons): 2.62±0.42
SMILES: Clc1cccc(Cl)c1CSc1nnc(-c2cnccn2)s1 [Yoda1, 2-[(2,6-Dichlorophenyl)methylsulfanyl]-5-pyrazin-2-yl-1,3,4-thiadiazole]
